Test results reported in BindingDB's records for doi:10.1016/S0960-894X(01)80714-9 (1993).
pIC50: −log10 of the molar value.

Assays:
[1] = The compound was evaluated in vitro for the inhibition of pancreatitic porcine elastase(PPE)
[2] = The compound was evaluated in vitro for the inhibition of rat leukocyte elastase(RLE)

Row | SMILES | pIC50 [1] | pIC50 [2]
1 | CCCC[C@@H]1C(=O)N(C(C)=O)[C@@H]1C(C)=O [(3S,4S)-1,4-Diacetyl-3-butyl-azetidin-2-one] | < 3.80 | 4.43
2 | CO[C@@H]1C(=O)N(C(C)=O)[C@@H]1c1ccccc1 [(3S,4R)-1-Acetyl-3-methoxy-4-phenyl-azetidin-2-one] | 6.15 | 6.40
3 | CO[C@@H]1C(=O)N(C(C)=O)[C@@H]1C(C)=O [(3S,4S)-1,4-Diacetyl-3-methoxy-azetidin-2-one] | 4.59 | 4.96
